Where two headings read alike, the source gives them in different places.
Legend:
human plasma kallikrein = human plasma kallikrein (Homo sapiens (Human), UniProt P03952); experiment: Kallikrein inhibition assay (FLINT) utilizing a quenched AMC peptide substrate; type: biochemical; details: 30 min preincubation, kinetic reads over 30 min, Z-Gly-Pro-Arg-AMC substrate 50 μM; read-out: Kallikrein Kin Inh IC50
Procedure, shortened: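 Fluorogenic Z-Gly-Pro-Arg-AMC cleavage (50 μM substrate, 2 nM kallikrein, Tris pH 7.5, CaCl2, BSA, CHAPS, 2% DMSO) read kinetically at 340/440 nm for 30 min after 30-min compound pre-incubation. Compounds in 11-point 3-fold series from 1 μM; percent inhibition fitted to four-parameter equation for IC50.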

Factor XIa = Factor XIa (Homo sapiens (Human), UniProt P03951); experiment: Factor XIa inhibition assay (FLINT) utilizing a fluorophore-quencher pair peptide substrate; type: biochemical; details: 30 min preincubation, kinetic reads over 30 min, read-out: FXIa Kin Inh IC50
Factor XIa, sequence (P03951 388-625): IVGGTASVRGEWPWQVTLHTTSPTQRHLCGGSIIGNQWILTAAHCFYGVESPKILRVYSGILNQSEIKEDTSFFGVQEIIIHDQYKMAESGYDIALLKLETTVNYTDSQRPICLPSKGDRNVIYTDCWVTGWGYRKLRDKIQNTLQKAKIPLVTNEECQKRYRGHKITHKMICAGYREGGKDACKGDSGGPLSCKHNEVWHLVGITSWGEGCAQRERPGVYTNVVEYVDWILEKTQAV
Factor XIa, sequence (P03951 19-387 partner): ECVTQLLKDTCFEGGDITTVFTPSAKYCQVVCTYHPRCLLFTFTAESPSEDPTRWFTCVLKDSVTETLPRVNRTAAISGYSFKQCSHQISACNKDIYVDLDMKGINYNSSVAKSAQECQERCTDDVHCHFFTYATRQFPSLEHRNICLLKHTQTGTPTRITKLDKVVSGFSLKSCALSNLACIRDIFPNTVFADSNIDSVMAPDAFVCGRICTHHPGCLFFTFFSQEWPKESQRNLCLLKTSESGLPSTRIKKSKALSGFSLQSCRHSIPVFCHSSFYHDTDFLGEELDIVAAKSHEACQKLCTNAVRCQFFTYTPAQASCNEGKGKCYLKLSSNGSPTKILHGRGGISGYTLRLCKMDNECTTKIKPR
Procedure, shortened: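 FXIa ([…]) preincubated 30 min with compound (11-point 3-fold dilution, top 100 nM, 2% DMSO), then 15 μM quenched FXI Arg146-based peptide added; Tris pH 7.5, CaCl2, BSA, CHAPS. Fluorescence 485/520 nm read kinetically every 5 min over 30 min at RT; IC50 by 4-parameter fit.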

[1] = 5Fam-KLTRAETV-K5Tamra substrate 15 μM
[2] = 5Fam-[…]-K5Tamra substrate 15 μM

human plasma kallikrein, sequence (P03952 391-638): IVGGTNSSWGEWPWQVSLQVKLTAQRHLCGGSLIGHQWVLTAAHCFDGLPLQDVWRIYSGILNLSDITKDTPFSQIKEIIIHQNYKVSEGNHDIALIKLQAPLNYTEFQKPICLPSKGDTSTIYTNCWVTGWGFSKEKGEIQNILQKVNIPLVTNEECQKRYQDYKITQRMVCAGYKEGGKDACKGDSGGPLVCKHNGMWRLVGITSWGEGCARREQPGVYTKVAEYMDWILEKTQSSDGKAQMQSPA
human plasma kallikrein, sequence (P03952 20-390 partner): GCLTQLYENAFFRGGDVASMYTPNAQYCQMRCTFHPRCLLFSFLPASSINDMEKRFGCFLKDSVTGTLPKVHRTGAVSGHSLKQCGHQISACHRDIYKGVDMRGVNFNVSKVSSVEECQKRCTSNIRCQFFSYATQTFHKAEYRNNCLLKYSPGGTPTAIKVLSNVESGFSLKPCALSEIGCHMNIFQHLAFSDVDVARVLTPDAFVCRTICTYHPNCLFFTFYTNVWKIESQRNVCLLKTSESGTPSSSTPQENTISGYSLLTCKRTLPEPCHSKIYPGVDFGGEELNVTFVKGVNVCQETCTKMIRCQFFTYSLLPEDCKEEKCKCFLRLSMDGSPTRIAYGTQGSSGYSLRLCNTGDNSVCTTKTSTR

| IC50 (human plasma kallikrein) [nM] | IC50 (Factor XIa; [1]) [nM] | IC50 (Factor XIa; [2]) [nM] | Structure (SMILES) |
| --- | --- | --- | --- |
| 7.7 | 2.5 |  | NC(=O)c1ccc(-c2cnc([C@@H]3CC[C@@H]4CC(c5c(-n6cc(Cl)nn6)ccc(Cl)c5F)=CC(=O)N43)[nH]2)s1 [Example 207, 5-(2-((3S,8aR)-7-(3-Chloro-6-(4-chloro-1H-1,2,3-triazol-1-yl)-2-fluorophenyl)-5-oxo-1,2,3,5,8,8a-hexahydroindolizin-3-yl)-1H-imidazol-5-yl)thiophene-2-carboxamide] |
| 6.8 |  | 0.4 | [2H]c1nc([C@@H]2CC[C@]3([2H])CC(c4c(-n5cnnn5)ccc(Cl)c4F)=CC(=O)N23)[nH]c1-c1c(F)nc(N)c([2H])c1[2H] (single isomer, unassigned) [Example 132, (3S *,8aR*)-3-(5-(6-amino-2-fluoropyridin-3-yl-4,5-d2)-1H-imidazol-2-yl-4-d)-7-(3-chloro-2-fluoro-6-(1H-tetrazol-1-yl)phenyl)-2,3,8,8a-tetrahydroindolizin-5(1H)-one-8a-d] |
| 117 | > 100 |  | NC(=O)c1sc(-c2c[nH]c([C@@H]3CC[C@H]4CC(c5c(-n6cnnn6)ccc(Cl)c5F)=CC(=O)N43)n2)cc1F [Example 215, 5-(2-((3S,8aS)-7-(3-Chloro-2-fluoro-6-(1H-tetrazol-1-yl)phenyl)-5-oxo-1,2,3,5,8,8a-hexahydroindolizin-3-yl)-1H-imidazol-4-yl)-3-fluorothiophene-2-carboxamide] |
| 7.8 | 0.5 |  | [2H]c1cc(-c2cnc([C@@H]3CC[C@@H]4CC(c5c(-n6cnnn6)ccc(Cl)c5F)=CC(=O)N43)[nH]2)c(F)nc1N [Example 147, (3S,8aR)-3-[5-(6-amino-5-deuterio-2-fluoro-3-pyridyl)-1H-imidazol-2-yl]-7-[3-chloro-2-fluoro-6-(tetrazol-1-yl)phenyl]-2,3,8,8a-tetrahydro-1H-indolizin-5-one] |
| 26.8 | 36.1 |  | O=C1C=C(c2c(-n3cnnn3)ccc(Cl)c2F)CC2CC[C@@H](c3nc(-c4ccnc(OC(F)F)c4)c[nH]3)N12 (stereo partly drawn) [Example 10, (S)-7-[3-Chloro-2-fluoro-6-(tetrazol-1-yl)phenyl]-3-[4-[2-(difluoromethoxy)-4-pyridyl]-1H-imidazol-2-yl]-2,3,8,8a-tetrahydro-1H-indolizin-5-one] |
| 12.9 |  | 10.9 | C[C@H](Oc1nccc(-c2cnc([C@@H]3CC[C@H]4CC(c5c(-n6cnnn6)ccc(Cl)c5F)=CC(=O)N43)[nH]2)c1F)c1nnco1 (relative stereo) [Example 127, (3S*,8aS*)-3-(5-(2-((S*)-1-(1,3,4-oxadiazol-2-yl)ethoxy)-3-fluoropyridin-4-yl)-1H-imidazol-2-yl)-7-(3-chloro-2-fluoro-6-(1H-tetrazol-1-yl)phenyl)-2,3,8,8a-tetrahydroindolizin-5(1H)-one] |
| 197 | 39.4 |  | NC(=O)c1ccc(-c2cnc([C@@H]3CC[C@H]4CC(c5c(-n6cc(C(F)(F)F)nn6)ccc(Cl)c5F)=CC(=O)N43)[nH]2)cn1 (single isomer, unassigned) [Example 213] |
| 92 | 74.4 |  | O=C1C=C(c2c(-n3cnnn3)ccc(Cl)c2F)C[C@H]2CC[C@@H](c3ncc(-c4cnc5[nH]ccc5c4)[nH]3)N12 [Example 24, (3S,8aR)-3-(5-(1H-pyrrolo[2,3-b]pyridin-5-yl)-1H-imidazol-2-yl)-7-(3-chloro-2-fluoro-6-(1H-tetrazol-1-yl)phenyl)-2,3,8,8a-tetrahydroindolizin-5(1H)-one] |
| 5.6 |  | 5.2 | Cn1c(=O)[nH]c2ccc(-c3cnc([C@@H]4CC[C@H]5CC(c6c(-n7cnnn7)ccc(Cl)c6F)=CC(=O)N54)[nH]3)cc21 (relative stereo) [Example 299, 6-(2-((3S,8aS*)-7-(3-Chloro-2-fluoro-6-(1H-tetrazol-1-yl)phenyl)-5-oxo-1,2,3,5,8,8a-hexahydroindolizin-3-yl)-1H-imidazol-5-yl)-1-methyl-1H-benzo[d]imidazol-2(3H)-one] |
| 5.4 | 0.6 |  | CCC(=O)Nc1ccccc1-c1c[nH]c([C@@H]2CC[C@H]3CC(c4c(-n5cnnn5)ccc(Cl)c4F)=CC(=O)N32)n1 (relative stereo) [Example 296, N-(2-(24(3S,8aS*)-7-(3-Chloro-2-fluoro-6-(1H-tetrazol-1-yl)phenyl)-5-oxo-1,2,3,5,8,8a-hexahydroindolizin-3-yl)-1H-imidazol-4-yl)phenyl)propionamide] |
| 2.6 | 0.2 |  | Nc1ccc(-c2cnc([C@@H]3CC[C@@H]4CC(c5c(-n6cnnn6)ccc(Cl)c5F)=CC(=O)N43)[nH]2)c(Cl)n1 [Example 354, (3S,8aR)-3-[5-(6-amino-2-chloro-3-pyridyl)-1H-imidazol-2-yl]-7-[3-chloro-2-fluoro-6-(tetrazol-1-yl)phenyl]-2,3,8,8a-tetrahydro-1H-indolizin-5-one] |
| 12.5 | 3.3 |  | NC(=O)c1ncc(-c2c[nH]c([C@@H]3CC[C@@H]4CC(c5c(-n6cnnn6)ccc(Cl)c5F)=CC(=O)N43)n2)s1 [Example 205, 5-(2-((3S,8aR)-7-(3-Chloro-2-fluoro-6-(1H-tetrazol-1-yl)phenyl)-5-oxo-1,2,3,5,8,8a-hexahydroindolizin-3-yl)-1H-imidazol-4-yl)thiazole-2-carboxamide] |
| 6.6 | 1.7 |  | O=C1C=C(c2c(-n3cnnn3)ccc(Cl)c2F)C[C@H]2CC[C@@H](c3ncc(-c4ccc5cc[nH]c5c4F)[nH]3)N12 [Example 384, (3S,8aR)-7-(3-chloro-2-fluoro-6-(1H-tetrazol-1-yl)phenyl)-3-(5-(7-fluoro-1H-indol-6-yl)-1H-imidazol-2-yl)-2,3,8,8a-tetrahydroindolizin-5(1H)-one] |
| 4.1 | 3.7 |  | O=C1C=C(c2c(-n3cnnn3)ccc(Cl)c2F)C[C@@H]2CC[C@H](c3ncc(-c4ccnc(N5CCC[C@@H](O)C5)c4F)[nH]3)N12 (stereo in doubt) [Example 187, (3R,8aS)-7-(3-chloro-2-fluoro-6-(1H-tetrazol-1-yl)phenyl)-3-(5-(3-fluoro-2-((R)-3-hydroxypiperidin-1-yl)pyridin-4-yl)-1H-imidazol-2-yl)-2,3,8,8a-tetrahydroindolizin-5(1H)-one] |
| 1.2 | 0.6 |  | COc1ccc(-c2c[nH]c([C@@H]3CCC4CC(c5c(-n6cnnn6)ccc(Cl)c5F)=CC(=O)N43)n2)c(NC(=O)C2CC2)c1 (stereo partly drawn) [Example 276, N-(2-(2-((3S)-7-(3-Chloro-2-fluoro-6-(1H-tetrazol-1-yl)phenyl)-5-oxo-1,2,3,5,8,8a-hexahydroindolizin-3-yl)-1H-imidazol-4-yl)-5-methoxyphenyl)cyclopropanecarboxamide] |
| 20.7 | 9.3 |  | NC(=O)c1ncc(-c2c[nH]c([C@@H]3CC[C@@H]4CC(c5c(-n6cc(C(F)(F)F)nn6)ccc(Cl)c5F)=CC(=O)N43)n2)s1 (single isomer, unassigned) [Example 210] |
| 286 | 68.1 |  | CCOC(=O)Nc1ccncc1-c1c[nH]c([C@@H]2CC[C@H]3CC(c4c(-n5cnnn5)ccc(Cl)c4F)=CC(=O)N32)n1 [Example 268, Ethyl N-[3-[2-[(3S,8aS)-7-[3-chloro-2-fluoro-6-(tetrazol-1-yl)phenyl]-5-oxo-2,3,8,8a-tetrahydro-1H-indolizin-3-yl]-1H-imidazol-4-yl]-4-pyridyl]carbamate] |
